Results reported in patent publication US20180125774A1, “Method and Composition for Visible Light Dryable Nail Coatings” (priority 2016, published 2018).

Key:
Type in all cases: physicochemical
[1] = Solubility of visible light photo-initiator A in solvents; conditions: 25° C.
From the text: The following table 2 lists the solubility of the visible light photo-initiator A of the first preferred embodiment of the visible light dryable nail coating according to this present invention.

[2] = Stability (thermal, light, oxidation in air) as described
From the text: Any one of several photo-initiators is used in the present invention, wherein the photo-initiators can be either component (A): visible light photo-initiator A or component (B): visible light photo-initiator B. Visible light photo-initiator A is, but not limited to, Bis (η5-2,4-cylcopentadian-1-yl)-bis (2,6-di-fluoro-3-(1H-pyrrol-1-yl) phenyl) titanium. […] More specifically, visible light photo-initiator A is particularly suitable for the curing of photopolymers for imaging or information storage applications where extremely high photosensitivity is required.
It is worth to mention that visible light photo-initiator A is sensitive to visible light and any exposure to sunlight must be avoided. And, the visible light photo-initiator A must be stored in low temperature, which is below 25° C., and dry environment. […] Therefore, opened drums are required to close after use to protect the product against light.
Accordingly, visible light photo-initiator B is, but not limited to, 4,4′-Bis (diethylamino) benzophenone. Visible light photo-initiator B is both an aromatic ketone and a tertiary amine, and acts both as a photosensitizer and an amine synergist.

[3] = Specification solubility test in acetone
From the text: The following table 4 lists the specification of the visible light photo-initiator B of the first preferred embodiment of the visible light dryable nail coating according to this present invention.

[4] = Solubility of visible light photo-initiator B in solvents; conditions: 20° C.
From the text: The following table 5 lists the solubility of the visible light photo-initiator B of the first preferred embodiment of the visible light dryable nail coating according to this present invention.

| SMILES | Solubility ([1]; Acetone) [g in 100 ml solvent] | Solubility ([1]; Butyl Acetate) [g in 100 ml solvent] | Solubility ([1]; HDDA) [g in 100 ml solvent] | Solubility ([1]; MEK) [g in 100 ml solvent] | Solubility ([1]; Toluene) [g in 100 ml solvent] | Solubility ([1]; Water) [g in 100 ml solvent] | Thermal stability [2] | Light sensitivity ([2]; dissolved in a solvent or a formulation, daylight and standard fluorescence bulbs) | Resistance to oxidation ([2]; exposure in air, versus most commercially available EMK) | Solubility (3 g/10 mL Acetone) [3] | Solubility ([4]; Acetone) [% w/w] | Solubility ([4]; Butyl Acetate) [% w/w] | Solubility ([4]; Ethyl acetate) [% w/w] | Solubility ([4]; Methanol) [% w/w] | Solubility ([4]; Toluene) [% w/w] | Solubility ([4]; Water) [% w/w] |
| --- | --- | --- | --- | --- | --- | --- | --- | --- | --- | --- | --- | --- | --- | --- | --- | --- |
| Fc1ccc(-n2cccc2)c(F)[c]1[Ti+2][c]1c(F)ccc(-n2cccc2)c1F.c1cc[cH-]c1.c1cc[cH-]c1 [visible light photo-initiator A, Bis (η5-2,4-cylcopentadian-1-yl)-bis (2,6-di-fluoro-3-(1H-pyrrol-1-yl)phenyl) titanium] | 30 | 2 | 10 | 30 | 10 | <0.5 | good thermal stability | extremely sensitive to daylight and light from standard fluorescence bulbs | – | – | – | – | – | – | – | – |
| CCN(CC)c1ccc(C(=O)c2ccc(N(CC)CC)cc2)cc1 [visible light photo-initiator B, 4,4′-Bis (diethylamino) benzophenone] | – | – | – | – | – | – | – | – | more resistant to oxidation by exposure in air than most commercially available EMK | Clear solution | 30 | 30 | 24 | 7.0 | 25 | <0.01 |
